Values of other authors as cited in US20150080385A1, “OPHTHALMIC PHARMACEUTICAL COMPOSITION CONTAINING A CARBONIC ANHYDRASE INHIBITOR AND METHOD FOR THE PREPARATION THEREOF” (PHARMATHEN S.A., priority 2012, published 2015).

In the case of CCN[C@H]1CN(CCCOC)S(=O)(=O)c2sc(S(N)(=O)=O)cc21 [Brinzolamide, (R)-4-ethylamino-3,4-dihydro-2-(3-methoxy) propyl-2H-thieno[3,2-e]-1,2-thiazine-6-sulfonamide 1, 1 dioxide], the “Solubility in alcohol and methanol” value (alcohol and methanol) is listed as “slightly soluble” and the Solubility in water (water) is listed as “insoluble”.
